Legend:
[1] = molecular target: BRD4-BD2 (Homo sapiens, UniProt O60885); assay: BRD4 AlphaLISA assay, BRD4-BD2; type: binding; details: displacement of acetyl-histone H4 peptide (Lys5, 8, 12, 16)
Text: (§1) This bead-based proximity assay is based on the competitive displacement of a histone peptide (acetyl-histone H4/Lys5, 8, 12, 16) from the human bromodomain [22].

[2] = system: 10326 BRD3-NUT; assay: Cell proliferation assay (Alamar readout), 10326; type: cell-based, human; details: Homo sapiens, 96h, read-out: geomean GI50
Protocol: (§2) The NUT Carcinoma cell line Ty-82 was purchased from JCRB Japan No. 1330 and cultivated in RPMI 1640 supplemented with 10% fetal calf serum (FCS). The NC cell lines 10–15, 14169 and 10326 were in-licensed from Christopher French, Brigham & Womens Hospital, Boston, and were cultivated in DMEM supplemented with glutamax and 10% FCS.
(§3) Viability assays were performed on 96-well flat-bottom microtiter plates and incubated with Alamar Blue solution (Invitrogen, Carlsbad, US-CA). The effects of drug combinations were analysed using the Bliss Independence Model.
(§4) Dose response curves (96h cell proliferation assay - Alamar readout) on four NC cell lines with BET inhibitor BI 894999. Yellow bar: readout t zero (before adding of compound). Green bar: DMSO control (max proliferation).
(§5) Dose response curves (96h cell proliferation assay - Alamar readout) on four NC cell lines with multiple BET inhibitors.

[3] = system: T1, BRD3-NUT; assay: Immunofluorescence staining of NUT megadomains, 10326; type: cell-based, human; details: 10326 cells; 30 minutes treatment
T1 construct: endogenous in cells; host or cells: 10326 NUT carcinoma cells, in culture (A11) and as subcutaneous xenograft tumours in NOG mice (A26)
Protocol: Cells were seeded on four-well chamber slides (Merck Millipore, #PEZGS0416). After treatment, cells were fixed with 4% PFA (16% Solution, Thermo Fischer #28908 Paraformaldehyde, diluted 1:4 in PBS), permeabilised with 0,1% TX-100 (Sigma #93443, diluted in PBS). After blocking in blocking buffer (10% normal goat serum, Sigma #G9023–10ml, diluted in blocking solution: 2% BSA/PBS, Sigma #A7284–50ml, diluted 1:15 in PBS), the first antibody mAB rabbit anti-NUT 1:1000 (clone C52B1, Cell Signaling #3625) in blocking buffer was added, followed by incubation with the 2nd antibody goat anti-rabbit Alexa*488 1:1000 (Thermo Fisher, #A-11008) in blocking buffer in the dark. Cells were mounted with ProLong Gold Antifade Mountant with DAPI (Thermo Fisher, #P36931) and analysed using a Laser scanning microscope (LSM700).
[…] Upper row: antibody against NUT, lower row: DAPI.

[4] = PK analysis in mouse plasma; type: in vivo; details: CIEA NOG (NOD.Cg-Prkdc^scid Il2rg^tm1Sug/JicTac), po, mice, 2 mg/kg p.o.
Text: PK analysis in mouse plasma. Oral treatment at the indicated doses. Sampling at the indicated timepoints.

[5] = system: Ki67; assay: IHC of 10326 xenograft tumours, Ki67; type: in vivo, mice; details: day 21, BI 894999 monotherapy 2 mg/kg
Protocol: Immunohistochemistry was performed on formalin-fixed, paraffin-embedded tumour tissue using antibodies against human Ki67(Cell Signaling #9027, 1:400 dilution), anti-human mitochondria (Abcam ab92824, 1:1000 dilution) and against endogenous NUT protein (Cell Signaling #3625, 1:50 dilution) used to detect NUT fusion proteins. Digital images of whole tissue sections were acquired using a Leica SCN400 histology scanner (Leica Microsystems). Ki67-positive index was evaluated using Halo Software V. 3.2 (Indica lab). Regions of interest (ROIs) within the tissue sections were first identified using Halo Software via machine learning technology across pathological samples and tissue control, within these ROIs, nuclei were detected and classified as positive or negative based on IHC staining thresholds.
Quantification of Ki67 staining in NC 10326 tumor sections after treatment with BI 894999, CCS1477, or the combination thereof.

[6] = system: human solid and haematological cancer lines as well as primary patient-derived AML samples; details: cited from earlier work
[7] = molecular target: BRD4-BD1 (Homo sapiens, UniProt O60885); assay: BRD4 AlphaLISA assay, BRD4-BD1; type: binding; details: displacement of acetyl-histone H4 peptide (Lys5, 8, 12, 16)
Text: as §1

[8] = system: NC lines (Ty-82) versus AML cell lines (MV-4-11); assay: Incucyte caspase-3/7 apoptosis / cell death analysis; type: cell-based, human; details: in contrast to AML cell lines, Supplementary Fig. S3
Protocol: Live-cell imaging was performed with the Incucyte® S3 Live-Cell Analysis System as described previously for Incucyte® Zoom.
Incucyte analysis. Ty-82 cells (NC) or MV-4-11 (AML) cells were treated with BI 894999 at the concentrations indicated and analyzed over time with the IncuCyte™Caspase-3/7 Apoptosis Assay Reagent (Essenbioscience Cat No 4440). Cell confluence (left) and green fluorescence as a measure of caspase 3/7 activation (right) were monitored for up to 7 days with images taken every 3 hours.

[9] = system: 14169 BRD4-NUT; assay: Cell proliferation assay (Alamar readout), 14169; type: cell-based, human; details: Homo sapiens, 96h, read-out: geomean GI50
Protocol: as §2, §3, §4, §5

[10] = system: 10–15 BRD4-NUT; assay: Cell proliferation assay (Alamar readout), 10–15; type: cell-based, human; details: Homo sapiens, 96h, read-out: geomean GI50
Protocol: as §2, §3, §4, §5

[11] = system: 10326 xenograft (BRD3-NUT); assay: 10326 NC xenograft model; type: in vivo; details: 2 mg/kg BI 894999
Text: Mice were group-housed (8–10 mice per cage) under pathogen-free and controlled environmental conditions (21 ± 1.5 C temperature, 55 ± 10% humidity) in an AAALAC accredited facility and handled according to the institutional, governmental and European Union guidelines (Austrian Animal Protection Laws, GV-SOLAS and FELASA guidelines). Animal studies were approved by the internal ethics committee and the local government committee. Mice were 6- to 8-week-old female CIEA NOG purchased from Taconic, Denmark (NOD.Cg-Prkdc^scid Il2rg^tm1Sug/JicTac). 5 × 10^6 NC tumour cells were injected subcutaneously into the right flank of the mice (1 site per mouse). Mice were randomly distributed between the treatment and the vehicle control when tumours were well established and had reached volumes of 100–150 mm^3. Compounds were suspended in 0.5% Natrosol and administered once daily intra-gastral by gavage needle. Tumour diameters were measured three times a week with a calliper. […] Within each subtopic the p-values of the efficacy parameters were adjusted for multiple comparisons according to Bonferroni–Holm. The p-values of the tolerability parameter remained unadjusted in order not to overlook a possible adverse effect. The level of significance was fixed at α = 5%. An adjusted p-value of less than 0.05 was considered to show a statistically significant difference between the groups. The statistical evaluation was prepared using the software Graph Pad Prism.

[12] = system: HEXIM1; assay: Pharmacometrics (PK/PD) simulation; details: Supplement Fig. 6
Protocol: Pharmacometrics simulation for platelet counts (top) and plasma concentration (bottom) as a function of four different dosing regimens of BI 894999. Solid line of 10nM indicated the estimated plasma concentration needed to stimulate a maximum 2-fold change from baseline for HEXIM1.

CNc1nc(-c2nc3ccc(N4CCN(C)CC4)cc3n2Cc2ccccc2)cn2c(C)nnc12 [BI 894999]
IC50 [1]: 41 ± 30 nM
GI50 [2]: 1.2 nM
concentration at which BRD3-NUT detaches from chromatin [3]: 3 to 10 nM
Cmax [4]: 0.01 µM
cell proliferation as assessed by Ki67 levels [5]: reduced cell proliferation
GI50 values ([6]; AML cell lines): single-digit nM range
fold more potent compared to other BET inhibitors (GSK525762, OTX015, JQ1) ([6]; cellular potency in large panels): at least 10 fold
IC50 [7]: 5 ± 3 nM
fold higher compound concentrations required to undergo cell death [8]: > 100 fold
GI50 [9]: 0.9 nM
GI50 [10]: 1.7 nM
TGI [11]: 99%
estimated plasma concentration needed to stimulate a maximum 2-fold change from baseline for HEXIM1 [12]: 10 nM

Source: publication PMC9346113, “Therapeutic impact of BET inhibitor BI 894999 treatment: backtranslation from the clinic” (British Journal of Cancer, 2022)
